Values quoted from earlier work in US6620844B2, “Method for reducing blood insulin levels by reducing in vivo cathepsin L activity” (NewMillennium Pharmaceutical, Inc., priority 2001, dated 2003).

Legend:
Cathepsin S = Cathepsin S (Homo sapiens, UniProt P25774); conditions: cited from earlier work
Cathepsin B = Cathepsin B (Homo sapiens, UniProt P07858); conditions: cited from earlier work
Cathepsin L = Cathepsin L (Homo sapiens, UniProt P07711); conditions: cited from earlier work
Cathepsin K = biological target: T1, Cathepsin K (Homo sapiens, UniProt P43235); conditions: cited from earlier work
T1 sequence (P43235 115-329): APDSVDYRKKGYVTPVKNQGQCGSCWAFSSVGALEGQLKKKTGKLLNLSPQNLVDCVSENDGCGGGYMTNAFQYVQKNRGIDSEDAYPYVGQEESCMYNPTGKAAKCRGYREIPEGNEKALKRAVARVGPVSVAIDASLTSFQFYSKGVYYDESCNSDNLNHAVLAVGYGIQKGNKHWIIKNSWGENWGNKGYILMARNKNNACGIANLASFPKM

Cathepsin C = Cathepsin C (Homo sapiens, UniProt P53634); conditions: at 1 × 10^−6 M; cited from earlier work
Sequence of Cathepsin C (P53634 25-463, species assumed): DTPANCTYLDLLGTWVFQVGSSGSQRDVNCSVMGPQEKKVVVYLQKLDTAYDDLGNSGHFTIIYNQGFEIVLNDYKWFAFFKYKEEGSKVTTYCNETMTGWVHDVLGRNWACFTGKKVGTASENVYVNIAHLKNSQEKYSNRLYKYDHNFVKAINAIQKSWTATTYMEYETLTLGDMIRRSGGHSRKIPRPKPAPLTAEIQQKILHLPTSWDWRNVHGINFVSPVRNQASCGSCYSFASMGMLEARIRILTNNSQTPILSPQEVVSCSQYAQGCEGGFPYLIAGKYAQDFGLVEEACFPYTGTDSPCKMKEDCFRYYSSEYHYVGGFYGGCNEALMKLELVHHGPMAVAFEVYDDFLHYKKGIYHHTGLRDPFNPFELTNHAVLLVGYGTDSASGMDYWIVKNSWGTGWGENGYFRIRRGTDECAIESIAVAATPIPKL

Sequence of Cathepsin S (P25774 115-331, species assumed): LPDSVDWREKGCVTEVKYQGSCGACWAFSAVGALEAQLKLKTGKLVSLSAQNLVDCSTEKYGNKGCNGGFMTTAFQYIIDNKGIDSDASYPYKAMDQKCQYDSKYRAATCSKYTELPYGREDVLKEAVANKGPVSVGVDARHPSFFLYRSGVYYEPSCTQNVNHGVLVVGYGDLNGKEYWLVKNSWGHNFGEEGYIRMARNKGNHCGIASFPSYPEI
Sequence of Cathepsin L (P07711 114-333, species assumed): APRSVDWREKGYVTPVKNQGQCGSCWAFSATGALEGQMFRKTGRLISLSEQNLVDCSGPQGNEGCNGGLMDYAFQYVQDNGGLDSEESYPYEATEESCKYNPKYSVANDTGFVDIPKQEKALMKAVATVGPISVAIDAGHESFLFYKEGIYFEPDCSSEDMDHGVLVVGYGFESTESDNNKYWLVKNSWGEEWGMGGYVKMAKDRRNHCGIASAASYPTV

CC(C)CC(NC(=O)[C@@H](Cc1ccccc1)NC(=O)OCc1ccccc1)C(=O)C=O (stereo partly shown)
Ki (Cathepsin S): 0.185 nM
Ki (Cathepsin B): 0.76 nM

CC(C)C[C@H](NC(=O)N1CCOCC1)C(=O)N[C@H](/C=C/S(=O)(=O)c1ccccc1)CCc1ccccc1
Ki (Cathepsin S): 5 nM

N#CN1CCC(NC(=O)Cc2ccccc2)C1 (stereo not shown)
IC50 (Cathepsin B): 200 nM
IC50 (Cathepsin L): 54 nM
IC50 (Cathepsin K): 40 nM

N#CN1CC(NC(=O)CC2CCCCC2)C1
IC50 (Cathepsin B): 150 nM
IC50 (Cathepsin L): 6 nM
IC50 (Cathepsin K): 5 nM

CC(C)C[C@H](NC(=O)[C@H](CC(C)C)NC(=O)OCc1ccccc1)C(=O)COCc1ccc(-c2ccccc2)cc1
Ki (Cathepsin B): 1310 nM
Ki (Cathepsin L): 63 nM
Ki (Cathepsin K): 22 nM

CN(C)C(=O)[C@H](Cc1ccccc1)NC(=O)C1O[C@@H]1C(=O)NCCc1ccccn1 (stereo partly shown)
% of Inhibition, Cathepsin S (Cathepsin S; at 1 × 10^−6 M): 30%
% of Inhibition, Cathepsin B (Cathepsin B; at 1 × 10^−6 M): 0%
% of Inhibition, Cathepsin L (Cathepsin L; at 1 × 10^−6 M): 100%
% of Inhibition, Cathepsin K (Cathepsin K; at 1 × 10^−6 M): 0%
% of Inhibition, Cathepsin C (Cathepsin C): 0%

O=C[C@H](Cc1c[nH]c2ccccc12)NC(=O)C(Cc1ccccc1)Cc1ccccc1
IC50 (Cathepsin B): > 1000 nM
IC50 (Cathepsin L): < 32 nM
